Six compounds from patent publication US11793823B2, “Compounds and pharmaceutical uses thereof” (SyneuRx International (Taiwan) Corp., priority 2020, dated 2023) can be followed below.

For assay [1], the target named is SARS-CoV-2 3CLPro (Severe acute respiratory syndrome coronavirus 2 (2019-nCoV) (SARS-CoV-2), UniProt P0DTD1). Kind of assay: biochemical.
Assay [2] concerns the target human D-amino acid oxidase (hDAAO) (Homo sapiens (Human), UniProt P14920). Kind of assay: In vitro human D-amino acid oxidase (hDAAO) activity, D-Serine/Amplex Red fluorescence. The class given is biochemical. The note with it: D-Serine substrate, 20 min. How it is done:
The hDAAO inhibitory activities were measured by using D-Serine as a substrate to produce H2O2. The produced H2O2 would be oxidized by peroxidase, and the produced free radicals would further react with Amplex Red reagent to emit fluorescence. The intensity of fluorescence at 590 nm would be measured to represent the activity of hDAAO. All compounds were dissolved in DMSO. Each compound was diluted with DMSO in 3-fold serial dilution to create a dose response curve. Each sample was added in triplicate, 1 µL/well, into 96-well black plates. Positive control wells were added with 1 μL of DMSO. Then 49 μL of assay buffer (100 mM Tris-HCl, pH 8.5) containing 1.2 ng/mL hDAAO, 900 nM FAD, 0.2 units/mL HRP, and 100 μM Amplex Red was added to each well of the plate using a multichannel pipette. Next, 50 μL of 100 mM D-Serine in assay buffer was added. The reaction plates were then incubated in the dark at room temperature. The fluorescence readout was detected at 0 and 20 mins by Molecular Device Gemini EM fluorescence reader using the following settings: excitation filter 530 nm, and emission filter 590 nm. The percentage of inhibition values for each well was calculated with the following equation: The percentage of inhibition=(fluorescence sample, 20 min−fluorescence sample, 0 min)/(fluorescence DMSO, 20 min−fluorescence DMSO, 0 min)×100%
The nonlinear curve fitting model in GraphPad Prism was used to calculate IC50 value for each compound.

The mark [3] stands for this setting: final DMSO concentration 2%, read-out: IC50.
Where [4] appears, read: final DMSO concentration 2%, read-out: IC50 (μg/mL) (converted).

The structures appear in SMILES notation. Read-outs that look alike come from different tables or passages of the source. A value given as a limit tells only on which side of the number the result lay.

human D-amino acid oxidase (hDAAO), sequence (P14920 whole entry): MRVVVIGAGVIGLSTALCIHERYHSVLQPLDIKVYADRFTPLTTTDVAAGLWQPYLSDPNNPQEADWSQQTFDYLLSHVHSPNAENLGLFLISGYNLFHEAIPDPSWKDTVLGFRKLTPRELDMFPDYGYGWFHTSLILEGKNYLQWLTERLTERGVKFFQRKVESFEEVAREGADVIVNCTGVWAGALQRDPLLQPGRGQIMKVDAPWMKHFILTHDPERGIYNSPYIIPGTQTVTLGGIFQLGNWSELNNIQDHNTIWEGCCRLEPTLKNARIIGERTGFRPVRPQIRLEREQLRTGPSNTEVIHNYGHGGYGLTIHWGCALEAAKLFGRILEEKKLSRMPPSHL

Consider `O=C(O)c1cc(O)c(O)c(OC(=O)c2cc(O)c(O)c(OC(=O)c3cc(O)c(O)c(OC(=O)c4cc(O)c(O)c(OC(=O)c5cc(O)c(O)c(OC(=O)c6ccccc6)c5)c4)c3)c2)c1` [Compound 77, 3-((3-((3-((3-((3-(benzoyloxy)-4,5-dihydroxybenzoyl)oxy)-4,5-dihydroxybenzoyl)oxy)-4,5-dihydroxybenzoyl)oxy)-4,5-dihydroxybenzoyl)oxy)-4,5-dihydroxybenzoic acid], for which the IC50 in assay [1] (final DMSO concentration 0.4%, read-out: IC50) is 4.33 µM; in assay [1] (final DMSO concentration 0.4%, read-out: IC50 (μg/mL) (converted)), 4.33 µM; in assay [2] it was 0.072 µM.

Regarding `O=C(CC1CCCCC1)Oc1cc(C(=O)Oc2cc(C(=O)Oc3cc(C(=O)Oc4cc(C(=O)Oc5cc(C(=O)O)cc(O)c5O)cc(O)c4O)cc(O)c3O)cc(O)c2O)cc(O)c1O` [Compound 80, 3-((3-((3-((3-((3-(2-cyclohexylacetoxy)-4,5-dihydroxybenzoyl)oxy)-4,5-dihydroxybenzoyl)oxy)-4,5-dihydroxybenzoyl)oxy)-4,5-dihydroxybenzoyl)oxy)-4,5-dihydroxybenzoic acid], the IC50 in assay [1] (setting [3]) was greater than 62.5 µM; in assay [1] (setting [4]), greater than 62.5 µM; in assay [2] it was 0.058 µM.

Turning to `O=C(Oc1ccccc1)c1cc(O)c(O)c(OC(=O)c2cc(O)c(O)c(OC(=O)c3cc(O)c(O)c(OC(=O)c4cc(O)c(O)c(OC(=O)c5cc(O)c(O)c(OC(=O)c6ccccc6)c5)c4)c3)c2)c1` [Compound 85, 5-((5-((5-((2,3-dihydroxy-5-(phenoxycarbonyl)phenoxy)carbonyl)-2,3-dihydroxyphenoxy)carbonyl)-2,3-dihydroxyphenoxy)carbonyl)-2,3-dihydroxyphenyl 3-(benzoyloxy)-4,5-dihydroxybenzoate], the IC50 was 2.37 µM in assay [1] (setting [3]), 2.37 µM in assay [1] (setting [4]) and 0.031 µM in assay [2].

Turning to `O=C(OCc1cc(CCc2ccc(F)cc2)n[nH]1)c1cc(O)c(O)c(OC(=O)c2cc(O)c(O)c(OC(=O)c3cc(O)c(O)c(OC(=O)c4cc(O)c(O)c(OC(=O)c5cc(O)c(O)c(O)c5)c4)c3)c2)c1` [Compound 92, 5-((5-((5-((5-(((3-(4-fluorophenethyl)-1H-pyrazol-5-yl)methoxy)carbonyl)-2,3-dihydroxyphenoxy)carbonyl)-2,3-dihydroxyphenoxy)carbonyl)-2,3-dihydroxyphenoxy)carbonyl)-2,3-dihydroxyphenyl 3,4,5-trihydroxybenzoate], the IC50 in assay [1] (setting [3]) is 2.42 µM; in assay [1] (setting [4]), 2.42 µM; in assay [2] it was 0.023 µM.

In assay [2], `O=C(OC[C@H]1O[C@@H](OC(=O)c2cc(O)c(O)c(OC(=O)c3cc(O)c(O)c(OC(=O)c4cc(O)c(O)c(OC(=O)c5cc(O)c(O)c(OC(=O)c6cc(O)c(O)c(O)c6)c5)c4)c3)c2)[C@H](OC(=O)c2cc(O)c(O)c(OC(=O)c3cc(O)c(O)c(OC(=O)c4cc(O)c(O)c(OC(=O)c5cc(O)c(O)c(OC(=O)c6cc(O)c(O)c(O)c6)c5)c4)c3)c2)[C@@H]1OC(=O)c1cc(O)c(O)c(OC(=O)c2cc(O)c(O)c(OC(=O)c3cc(O)c(O)c(OC(=O)c4cc(O)c(O)c(OC(=O)c5cc(O)c(O)c(O)c5)c4)c3)c2)c1)c1cc(O)c(O)c(OC(=O)c2cc(O)c(O)c(OC(=O)c3cc(O)c(O)c(OC(=O)c4cc(O)c(O)c(OC(=O)c5cc(O)c(O)c(O)c5)c4)c3)c2)c1` [Compound 148, (2S,3R,4R,5R)-5-(((3-((3-((3-((3,4-dihydroxy-5-((3,4,5-trihydroxybenzoyl)oxy)benzoyl)oxy)-4,5-dihydroxybenzoyl)oxy)-4,5-dihydroxybenzoyl)oxy)-4,5-dihydroxybenzoyl)oxy)methyl)tetrahydrofuran-2,3,4-triyl tris(3-((3-((3-((3,4-dihydroxy-5-((3,4,5-trihydroxybenzoyl)oxy)benzoyl)oxy)-4,5-dihydroxybenzoyl)oxy)-4,5-dihydroxybenzoyl)oxy)-4,5-dihydroxybenzoate)] had an IC50 of 0.004 µM.

With `O=C(O)c1cc(O)c(O)c(OC(=O)c2cc(O)c(O)c(OC(=O)c3cc(O)c(O)c(OC(=O)c4cc(O)c(O)c(O)c4)c3)c2)c1` [Compound 149, 3-((3-((3,4-dihydroxy-5-((3,4,5-trihydroxybenzoyl)oxy)benzoyl)oxy)-4,5-dihydroxybenzoyl)oxy)-4,5-dihydroxybenzoic acid], in assay [2], the IC50 was determined as 0.048 µM.
